Reference: patent US20190048054A1, “Mesenchymal Stem Cells Expressing Biomarkers that Predict the Effectiveness of Mesenchymal Stem Cells for Treating Diseases and Disorders” (priority 2014, published 2019)

What was measured:
[1] = tested on: animal models for human diseases; conditions: administration of recombinant TSG-6; cited from earlier work
hMSCs = assay: Cell viability of hMSCs after estradiol treatment (photographs); assay type: cell-based, human; conditions: estradiol treatment for 4 days (FIG. 2C)

Compound	beneficial effects compared with hMSCs [1]	cell viability (hMSCs)
recombinant TSG-6: naturally occurring anti-inflammatory protein of 35 kDa, SEQ ID NO: 1; given as recombinant protein	reproduced most of the beneficial effects of the hMSCs	–
C[C@]12CC[C@@H]3c4ccc(O)cc4CC[C@H]3[C@@H]1CC[C@@H]2O [estradiol]	–	without affecting cell viability
